Assay results reported in paper PMC7473970, “Preformulation Studies of a Stable PTEN-PDZ Lipopeptide Able to Cross an In Vitro Blood-Brain-Barrier Model as a Potential Therapy for Alzheimer’s Disease” (Pharmaceutical Research, 2020).
Residues, ends and D or L forms follow the SMILES beside them.

Experiments:
[1] = In vitro stability in simulated intestinal fluid (mouse intestinal wash); format: in vitro ADME; conditions: 120 μL of 5 mM DMSO stock in 1080 μL, 37°C, 0-1440 min, HPLC-UV 220 nm, n = 3
Procedure: (§1) The samples were analyzed at 40°C on a Phenomenex Lichrosorb RP8 C8 column (4.0 mm × 250 mm, 5 μm), using the gradient elution method on an Agilent HPLC system (Agilent Technologies, Cheadle, UK) equipped with an 1100 series degasser, quaternary pump, autosampler, and column heater, and attached to an Agilent 1200 series PDA detector and a 1250 series fluorescent detector. The flow rate was set at 1.2 mL min^-1, and the injection volume was set at 40 μL, while detection was performed at 220 nm. The mobile phase was a mixture of mobile phase A (0.1% TFA in water) and phase B (0.08% TFA in acetonitrile), and in the first 5 min, the mobile phase was an 8:2 ratio of A:B (v/v) and from 5 to 15 min the percentage of B was raised from 8:2 to 1:9 (v/v). Linear calibration curves were constructed for both peptides between 0.1–100 μg.mL^−1. The retention time for the human Lau–PTEN-PDZ, mouse Lau–PTEN-PDZ, human Myr–PTEN-PDZ, and mouse Myr–PTEN-PDZ was 12.03, 11.60, 13.68, and 13.91, respectively.
The duodenum and ileum were excised from 10 non-fasted CD-1 male mice (7 weeks-old: Charles River Laboratories) that were sacrificed with CO2. Each duodenum and ileum were washed with 6 ml of phosphate buffer (50 mM, pH 6.63), and all the washes were pooled prior to centrifugation at 4000 rpm for 15 min at 4°C (Heraeus Multifuge 3sf) ([7],[15]). The intestinal wash was removed and frozen at −80°C prior to using it in stability studies without further dilution. Peptides stocks (5 mM in DMSO) were prepared and maintained at −20°C prior to performing stability studies. A stock peptide solution (120 μL) was added to the diluted pre-warmed (37°C) intestinal wash (1080 μL) with agitation at 100 rpm (Grant Aqua Waterbath), and samples (80 μL) were taken at 0, 15, 30, 45, 60, 90, 120, 180, 240, 360 and 1440 min, and diluted with ice-cold glacial acetic acid (17.5 M): acetonitrile (5:95 v/v, 80 μL) to quench the enzyme activity. Samples were vortexed and left in −80°C at least overnight to maximize protein precipitation, and after vortexing again for 15 min and centrifuging, the supernatant was analyzed by HPLC as described above.

[2] = In vitro stability in 50% brain homogenate; format: in vitro ADME, mouse; conditions: 37°C, HPLC-UV 220 nm, one phase decay, least square fit, n = 3
Procedure: as §1
The liver and brain of the mice were excised from […] CD-1 male mice (7 weeks-old: Charles River Laboratories) sacrificed with CO2, and the tissue was frozen immediately with liquid nitrogen prior to storage at −80°C. The liver and brain tissue were thawed and homogenized on ice in PBS (2 mL/g of tissue) using a glass 3 mL tissue homogenizer (20 strokes per sample), and the liver and brain homogenates were centrifuged (Heraeus Multifuge 3sf, Fisher Scientific, Basingstoke, UK) at 4300 g for 60 min at 4°C and at 3000 g for 20 min at 4°C, respectively. The supernatant was stored at −80°C, diluted 1:1 (v/v) with PBS (1x, pH 7.4), and used in stability studies. Peptides stocks (5 mM in DMSO) were prepared and maintained at −20°C prior to performing stability studies. These stock solutions (120 μL) were added to the diluted pre-warmed (37°C) liver or brain homogenate (50% v/v, 1080 μL) with agitation (100 rpm: Grant Aqua Waterbath), and samples (80 μL) were taken at 0, 5, 10, 15, 30, 45, 60, 90, 120, 180, 240, 360 and 1440 min, and diluted with ice-cold acetonitrile (80 μL). Samples were vortexed and left at −80°C at least overnight to allow for maximum protein precipitation, the samples were vortexed again for 15 min, centrifuged and the supernatant was analyzed by HPLC as described above.
The total protein concentration in the homogenates was determined using the Bradford protein assay ([7],[15]) and BSA as a standard. Ten stock solutions of BSA were prepared in PBS between 0.1–1 mg mL^−1, and 40 μL of each of the diluted stocks were added to 1.2 mL of Bradford reagent and incubated at room temperature for 5 min. The absorbance was recorded at 595 nm using a Multiskan GO spectrophotometer and the SkanIt software (Thermo Scientific, Paisley, UK). A linear calibration curve was obtained in this range that was used to extrapolate the protein content of 1:100 v/v stock solutions of 50% mouse plasma, liver, and brain homogenates diluted in PBS.

[3] = Simulated intestinal fluid = undiluted pooled CD-1 mouse duodenum/ileum wash, phosphate buffer pH 6.63, one phase decay fit
[4] = 50% w/v mouse brain homogenate in PBS pH 7.4

In the case of `CCCCCCCCCCCCCC(=O)N[C@@H](CCC(N)=O)C(=O)N[C@@H](Cc1c[nH]cn1)C(=O)N[C@@H](CO)C(=O)N[C@@H](CCC(N)=O)C(=O)N[C@H](C(=O)N[C@H](C(=O)N[C@@H](CCCCN)C(=O)N[C@H](C(=O)O)C(C)C)[C@@H](C)O)[C@@H](C)CC` [Mouse Myr-PTEN-PDZ] (HELM PEPTIDE1{[CCCCCCCCCCCCCC(=O)[*:2]].Q.H.S.Q.I.T.K.V}$$$$V2.0), the k ([1]; Simulated intestinal fluid = undiluted pooled CD-1 mouse duodenum/ileum wash in 50 mM phosphate buffer pH 6.63, 100 rpm, one phase decay, least square fit) is reported as 0.15 h⁻¹, the “t1/2 (h)” value [1, 3] is reported as 4.52 h and the “t1/2 (min)” value [1, 3] is reported as 271.02 min. For the same compound, the k ([2]; 50% w/v CD-1 mouse brain homogenate in PBS pH 7.4, 120 μL of 5 mM DMSO stock in 1080 μL, 100 rpm, 0-1440 min) was 2.71 h⁻¹, the “t1/2 (h)” value [2, 4] was 0.25 h and the “t1/2 (min)” value [2, 4] was 15.32 min.
